Data reported in ChEMBL document CHEMBL1130476, “Molecular modeling of the interaction of trypanocide guanyl hydrazones with B-DNA” (1997).

Tested on: Trypanosoma cruzi
Experiment: Inhibitory dose for selectivity against Trypanosoma cruzi
Format: functional
Details: read-out: ID50 (the source's name)

IC50 [µM] | SMILES
205 | N=C(N)N/N=C/c1ccccc1
877 | N=C(N)N/N=C/c1cccc([N+](=O)[O-])c1O
23.7 | N=C(N)N/N=C/c1cc2c(cc1Br)OCO2
4800 | COc1cc(/C=N/NC(=N)N)ccc1O
22.5 | COc1cccc(/C=N/NC(=N)N)c1OC
27.4 | N=C(N)N/N=C/c1ccc(Cl)cc1

SMILES | IC50 [µM]
N=C(N)N/N=C/c1ccc2c(c1)OCO2 | 274
